# Assay results reported in patent publication US10689354B2, “Aminoazole derivative” (Teijin Pharma Limited, priority 2015, dated 2020).
# Legend:
# [1] = molecular target: T1, androgen receptor (AR-LBD) (Rattus norvegicus, UniProt P15207); assay: Evaluation of androgen receptor affinity (PolarScreen Androgen Receptor Competitor Assay Kit, Red; fluorescence polarization); conditions: 22° C. for 5 hours, relative to binding rate of 1 μM DHT, read-out: AR affinity (pEC50) (converted)
# T1 construct: 5 μL of 2×AR-LBD/Fluoromone AL Red Complex contained in the kit; purchased Invitrogen
# T1 sequence (P15207 651-882 limits assumed): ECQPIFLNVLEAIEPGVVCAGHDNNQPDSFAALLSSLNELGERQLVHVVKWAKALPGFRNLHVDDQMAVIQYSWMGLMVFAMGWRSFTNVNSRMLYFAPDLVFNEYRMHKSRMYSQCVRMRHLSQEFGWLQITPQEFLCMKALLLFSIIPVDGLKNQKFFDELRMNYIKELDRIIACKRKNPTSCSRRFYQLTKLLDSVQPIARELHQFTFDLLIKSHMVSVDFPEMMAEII
# Procedure, shortened: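 Test compound and the 2× AR-LBD/Fluoromone AL Red complex were combined in duplicate wells. After reacting 5 h at 22° C, polarization was measured. pEC50 was derived by 4-parameter fitting, normalizing to binding obtained with 1 μM dihydrotestosterone.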
# human androgen receptor = molecular target: T2, human androgen receptor (Homo sapiens, UniProt P10275); assay: Reporter assay of an androgen receptor responsive sequence (luciferase, transiently transfected HEK293 cells); type: cell-based; conditions: 24 hours incubation, relative to activity of 100 nM DHT, read-out: AR transcriptive activity (pEC50) (converted)
# T2 construct: expressed in transfected cells; host or cells: HEK293
# T2 sequence (P10275 1-920): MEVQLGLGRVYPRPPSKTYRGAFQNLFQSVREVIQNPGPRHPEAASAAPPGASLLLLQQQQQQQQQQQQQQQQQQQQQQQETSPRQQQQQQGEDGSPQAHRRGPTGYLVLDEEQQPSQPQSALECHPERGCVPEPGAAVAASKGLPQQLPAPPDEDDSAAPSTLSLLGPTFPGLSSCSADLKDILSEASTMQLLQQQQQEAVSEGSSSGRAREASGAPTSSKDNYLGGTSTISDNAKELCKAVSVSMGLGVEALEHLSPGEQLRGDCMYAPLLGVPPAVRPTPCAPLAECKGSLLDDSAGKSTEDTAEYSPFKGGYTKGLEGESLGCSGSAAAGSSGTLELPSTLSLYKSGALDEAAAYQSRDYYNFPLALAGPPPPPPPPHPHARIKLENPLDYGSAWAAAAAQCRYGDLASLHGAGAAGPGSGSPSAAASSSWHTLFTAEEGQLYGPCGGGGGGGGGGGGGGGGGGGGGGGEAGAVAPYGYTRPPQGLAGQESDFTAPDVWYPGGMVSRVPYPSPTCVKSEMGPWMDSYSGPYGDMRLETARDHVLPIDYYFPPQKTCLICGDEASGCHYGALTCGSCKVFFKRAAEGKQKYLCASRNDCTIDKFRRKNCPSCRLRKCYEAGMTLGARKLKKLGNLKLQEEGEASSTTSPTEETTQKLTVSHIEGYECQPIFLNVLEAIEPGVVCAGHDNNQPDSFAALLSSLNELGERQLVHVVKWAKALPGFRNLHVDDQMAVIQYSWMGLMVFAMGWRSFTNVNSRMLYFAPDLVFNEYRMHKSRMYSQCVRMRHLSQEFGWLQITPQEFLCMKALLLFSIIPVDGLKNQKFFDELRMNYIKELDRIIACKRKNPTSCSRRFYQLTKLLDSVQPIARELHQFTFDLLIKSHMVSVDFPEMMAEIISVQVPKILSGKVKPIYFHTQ
# Procedure, shortened: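 Agonism scored as pEC50, fitted by 4-parameter curve against the response to 100 nM DHT, from dual-luciferase readout after 24 h compound treatment. Cells were HEK293 co-transfected (3 h) with human AR expression vector, androgen-responsive firefly reporter and Renilla control, in charcoal-stripped serum.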
EC50 [1],EC50 (human androgen receptor),SMILES
0.251 µM,0.501 µM,"Cc1sc(N(Cc2ncc(Cl)cc2Cl)c2ccc(C#N)cc2)nc1C(=O)NS(C)(=O)=O [Example 180, 2-[4-cyano-N-[(3,5-dichloro-2-pyridyl)methyl]anilino]-5-methyl-N-methylsulfonyl-thiazole-4-carboxamide]"
0.0398 µM,0.316 µM,"Cc1oc(N(CCc2ccc(Cl)cc2)Cc2ccc(OC(F)(F)F)cc2)nc1C(=O)NS(C)(=O)=O [Compound 544, 2-[2-(4-chlorophenyl)ethyl-[[4-(trifluoromethoxy)phenyl]methyl]amino]-5-methyl-N-methylsulfonyl-oxazole-4-carboxamide]"
0.0501 µM,> 10 µM,"CS(=O)(=O)NC(=O)c1nc(N(Cc2ccc(OC(F)F)cc2)c2ccc(C#N)cc2)oc1C1CC1 [Compound 648, 2-[4-cyano-N-[[4-(difluoromethoxy)phenyl]methyl]anilino]-5-cyclopropyl-N-methylsulfonyl-oxazole-4-carboxamide]"
0.0158 µM,0.0501 µM,"Cc1sc(N(Cc2ccccc2SC(F)F)c2ccc(C#N)cc2)nc1C(=O)NS(C)(=O)=O [Compound 79, 2-[4-cyano-N-[[2-(difluoromethylsulfanyl)phenyl]methyl]anilino]-5-methyl-N-methylsulfonyl-thiazole-4-carboxamide]"
0.1 µM,1.26 µM,"Cc1sc(N(CCc2ccc(OC(F)(F)F)cc2)Cc2ccc(Cl)cn2)nc1C(=O)NS(C)(=O)=O [Compound 512, 2-[(5-chloro-2-pyridyl)methyl-[2-[4-(trifluoromethoxy)phenyl]ethyl]amino]-5-methyl-N-methylsulfonyl-thiazole-4-carboxamide]"
0.2 µM,0.631 µM,"Cc1sc(N(CCc2ccc(Cl)cc2)Cc2ccc(Cl)cc2)nc1C(=O)NS(=O)(=O)C(F)(F)F [Compound 696, 2-[2-(4-chlorophenyl)ethyl-[(4-chlorophenyl)methyl]amino]-5-methyl-N-(trifluoromethylsulfonyl)thiazole-4-carboxamide]"
0.2 µM,0.316 µM,"Cc1sc(N(Cc2cccc(CO)c2)c2ccc(C#N)cc2)nc1C(=O)NS(C)(=O)=O [Compound 6, 2-[4-cyano-N-[[3-(hydroxymethyl)phenyl]methyl]anilino]-5-methyl-N-methylsulfonyl-thiazole-4-carboxamide]"
0.316 µM,5.01 µM,"Cc1oc(N(CCc2ccc(C#N)cc2)Cc2ccc(C(F)(F)F)nc2)nc1C(=O)NS(C)(=O)=O [Compound 555, 2-[2-(4-cyanophenyl)ethyl-[[6-(trifluoromethyl)-3-pyridyl]methyl]amino]-5-methyl-N-methylsulfonyl-oxazole-4-carboxamide]"
0.316 µM,> 10 µM,"Cc1sc(N(Cc2ccc(S(C)(=O)=O)cc2)c2ccc(C#N)cc2)nc1C(=O)NS(C)(=O)=O [Compound 12, 2-[4-cyano-N-[(4-methylsulfonylphenyl)methyl]anilino]-5-methyl-N-methylsulfonyl-thiazole-4-carboxamide]"
0.0158 µM,0.501 µM,"CS(=O)(=O)NC(=O)c1nc(N(Cc2ccc(Cl)cc2)c2ccc(C#N)cc2)sc1C1CC1 [Compound 661, 2-[N-[(4-chlorophenyl)methyl]-4-cyano-anilino]-5-cyclopropyl-N-methylsulfonyl-thiazole-4-carboxamide]"
0.158 µM,0.316 µM,"Cc1sc(N(Cc2ccc(OC(F)F)cn2)c2ccc(C#N)cc2)nc1C(=O)NS(C)(=O)=O [Compound 511, 2-[4-cyano-N-[[5-(difluoromethoxy)-2-pyridyl]methyl]anilino]-5-methyl-N-methylsulfonyl-thiazole-4-carboxamide]"
0.0631 µM,5.01 µM,"Cc1sc(N(Cc2csc3cccc(C)c23)c2ccc(C#N)cc2)nc1C(=O)NS(C)(=O)=O [Compound 464, 2-[4-cyano-N-[(4-methylbenzothiophen-3-yl)methyl]anilino]-5-methyl-N-methylsulfonyl-thiazole-4-carboxamide]"
